Tests used:
[1] = tested on: IPOHE (Ipomoea hederacea); experiment: Postemergence herbicidal evaluation; format: in vivo, (L.) Jacq.
How it was run: (§1)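 Seedlings grown about two weeks in flats, sprayed, then kept under standard greenhouse care. Rated visually 4–5 weeks after treatment on a 0–9 scale (stand, vigour, malformation, size, chlorosis, overall appearance) relative to untreated control; repeat tests averaged.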

[2] = tested on: ECHCG (Echinochloa crus-galli); experiment: Preemergence herbicidal evaluation; format: in vivo, (L.) Beau; conditions: rated 4-5 weeks after treatment
How it was run: (§2)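 Visual 0–9 rating versus control (stand, vigor, malformation, size, chlorosis, overall appearance), scored four to five weeks post-treatment. Preemergence spray of aqueous acetone solution onto freshly seeded soil cups; plants grown under conventional greenhouse care.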

SETVI (Setaria viridis) [3] = experiment: Preemergence herbicidal evaluation; format: in vivo, (L.) Beau; conditions: rated 4-5 weeks after treatment
How it was run: as §2

[4] = tested on: CYPSE (Cyperus serotinus); experiment: Flooded paddy, preemergence weed control; format: in vivo, Rottb.; conditions: rated 3-4 weeks after treatment, 0-9 rating scale
How it was run: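 Herbicidal effect was scored visually on a 0–9 scale against an untreated control 3–4 weeks after treatment. Compounds were applied preemergence as 50/50 v/v aqueous/acetone mixtures into flood water (1.5–3 cm deep over silt loam), at roughly 0.0080 to 0.1250 kg/ha active ingredient.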

[5] = tested on: TRZAWR (Wheat, Winter, cv Riband); experiment: Postemergence herbicidal evaluation; format: in vivo, Triticum aestivum
How it was run: as §1

[6] = tested on: MOOVA (Monochoria vaginalis); experiment: Flooded paddy, preemergence weed control; format: in vivo, Presl.; conditions: rated 3-4 weeks after treatment, 0-9 rating scale
How it was run: (§3)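 Preemergence, flooded: propagules planted at 0.5 cm depth in silt loam, water level maintained at 1.5 to 3 cm over soil, containers kept on greenhouse benches. Activity scored 0-9 by eye relative to a control plant.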

[7] = tested on: ABUTH (Abutilon theophrasti); experiment: Postemergence herbicidal evaluation; format: in vivo, Medic.
How it was run: as §1

[8] = tested on: AMBEL (Ambrosia artemisifolia); experiment: Preemergence herbicidal evaluation; format: in vivo, L.; conditions: rated 4-5 weeks after treatment
How it was run: as §2

[9] = tested on: CASOB (Cassia obtusifolia); experiment: Preemergence herbicidal evaluation; format: in vivo, L.; conditions: rated 4-5 weeks after treatment
How it was run: as §2

[10] = tested on: CHEAL (Chenopodium album); experiment: Preemergence herbicidal evaluation; format: in vivo, L.; conditions: rated 4-5 weeks after treatment
How it was run: as §2

CYPIR (Cyperus iria) = experiment: Flooded paddy, preemergence weed control; format: in vivo; conditions: rated 3-4 weeks after treatment, 0-9 rating scale
How it was run: as §3

SETVI (Setaria viridis) [11] = experiment: Postemergence herbicidal evaluation; format: in vivo, (L.) Beau
How it was run: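 Postemergence foliar spray on two-week-old seedlings, dose equivalent to about 0.0040 to 1.000 kg/ha. Ratings use a 0-9 visual scale relative to control at four to five weeks.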

GALAP (Galium aparine) [12] = experiment: Postemergence herbicidal evaluation; format: in vivo
How it was run: as §1

ORYSAT (Rice, Tebonnet) [13] = experiment: Preemergence herbicidal evaluation; format: in vivo, Oryza sativa, (L.) Tebonnet; conditions: rated 4-5 weeks after treatment
ORYSAT (Rice, Tebonnet) [14] = experiment: Postemergence herbicidal evaluation; format: in vivo, Oryza sativa, (L.) Tebonnet
How it was run: as §1

[15] = tested on: SAGPY (Sagittaria pygmaea); experiment: Flooded paddy, preemergence weed control; format: in vivo, L.; conditions: rated 3-4 weeks after treatment, 0-9 rating scale
How it was run: as §3

GALAP (Galium aparine) [16] = experiment: Preemergence herbicidal evaluation; format: in vivo; conditions: rated 4-5 weeks after treatment
How it was run: as §2

[17] = tested on: AMBEL (Ambrosia artemisifolia); experiment: Postemergence herbicidal evaluation; format: in vivo, L.
How it was run: as §1

[18] = tested on: CASOB (Cassia obtusifolia); experiment: Postemergence herbicidal evaluation; format: in vivo, L.
How it was run: as §1

[19] = tested on: CHEAL (Chenopodium album); experiment: Postemergence herbicidal evaluation; format: in vivo, L.
How it was run: as §1

## Cc1cccnc1-c1nsc2cc(F)c(-n3c(=O)cc(C(F)(F)F)n(C)c3=O)cc12 [Compound 44, 3-[6-fluoro-3-(3-methyl-2-pyridyl)-1,2-benzisothiazol-5-yl]-1-methyl-6-(trifluoromethyl)uracil]
[1]; rate 0.0320 kg/ha
  Postemergence herbicidal rating, IPOHE: 9.0
[1]; rate 0.0620 kg/ha
  Postemergence herbicidal rating, IPOHE: 9.0
[2]; Rate 0.0620 kg/ha
  Preemergence herbicidal rating ECHCG: 9.0
[2]; Rate 0.1250 kg/ha
  Preemergence herbicidal rating ECHCG: 9.0
[2]; Rate 0.2500 kg/ha
  Preemergence herbicidal rating ECHCG: 9.0
SETVI (Setaria viridis) [3]; Rate 0.0620 kg/ha
  Preemergence herbicidal rating SETVI: 9.0
SETVI (Setaria viridis) [3]; Rate 0.1250 kg/ha
  Preemergence herbicidal rating SETVI: 9.0
SETVI (Setaria viridis) [3]; Rate 0.2500 kg/ha
  Preemergence herbicidal rating SETVI: 9.0
[4]; rate 0.0080 kg/ha
  herbicidal rating, CYPSE: 0.0
[4]; rate 0.0320 kg/ha
  herbicidal rating, CYPSE: 9.0
[4]; rate 0.1250 kg/ha
  herbicidal rating, CYPSE: 9.0
[5]; rate 0.0320 kg/ha
  Postemergence herbicidal rating, TRZAWR: 4.0
[5]; rate 0.0620 kg/ha
  Postemergence herbicidal rating, TRZAWR: 5.0
[6]; rate 0.0080 kg/ha
  herbicidal rating, MOOVA: 0.0
[6]; rate 0.0320 kg/ha
  herbicidal rating, MOOVA: 8.5
[6]; rate 0.1250 kg/ha
  herbicidal rating, MOOVA: 9.0
[7]; rate 0.0320 kg/ha
  Postemergence herbicidal rating, ABUTH: 9.0
[7]; rate 0.0620 kg/ha
  Postemergence herbicidal rating, ABUTH: 9.0
[8]; Rate 0.0620 kg/ha
  Preemergence herbicidal rating AMBEL: 8.0
[8]; Rate 0.1250 kg/ha
  Preemergence herbicidal rating AMBEL: 9.0
[8]; Rate 0.2500 kg/ha
  Preemergence herbicidal rating AMBEL: 9.0
[9]; Rate 0.0620 kg/ha
  Preemergence herbicidal rating CASOB: 1.0
[9]; Rate 0.1250 kg/ha
  Preemergence herbicidal rating CASOB: 5.5
[9]; Rate 0.2500 kg/ha
  Preemergence herbicidal rating CASOB: 9.0
[10]; Rate 0.0620 kg/ha
  Preemergence herbicidal rating CHEAL: 9.0
[10]; Rate 0.1250 kg/ha
  Preemergence herbicidal rating CHEAL: 9.0
[10]; Rate 0.2500 kg/ha
  Preemergence herbicidal rating CHEAL: 9.0
CYPIR (Cyperus iria); rate 0.0080 kg/ha
  herbicidal rating, CYPIR: 0.0
CYPIR (Cyperus iria); rate 0.0320 kg/ha
  herbicidal rating, CYPIR: 8.0
CYPIR (Cyperus iria); rate 0.1250 kg/ha
  herbicidal rating, CYPIR: 9.0
SETVI (Setaria viridis) [11]; rate 0.0320 kg/ha
  Postemergence herbicidal rating, SETVI: 9.0
SETVI (Setaria viridis) [11]; rate 0.0620 kg/ha
  Postemergence herbicidal rating, SETVI: 9.0
GALAP (Galium aparine) [12]; rate 0.0320 kg/ha
  Postemergence herbicidal rating, GALAP: 4.0
GALAP (Galium aparine) [12]; rate 0.0620 kg/ha
  Postemergence herbicidal rating, GALAP: 7.0
ORYSAT (Rice, Tebonnet) [13]; Rate 0.0620 kg/ha
  Preemergence herbicidal rating ORYSAT: 6.5
ORYSAT (Rice, Tebonnet) [13]; Rate 0.1250 kg/ha
  Preemergence herbicidal rating ORYSAT: 8.0
ORYSAT (Rice, Tebonnet) [13]; Rate 0.2500 kg/ha
  Preemergence herbicidal rating ORYSAT: 8.0
ORYSAT (Rice, Tebonnet) [14]; rate 0.0320 kg/ha
  Postemergence herbicidal rating, ORYSAT: 2.0
ORYSAT (Rice, Tebonnet) [14]; rate 0.0620 kg/ha
  Postemergence herbicidal rating, ORYSAT: 3.5
[15]; rate 0.0080 kg/ha
  herbicidal rating, SAGPY: 0.0
[15]; rate 0.0320 kg/ha
  herbicidal rating, SAGPY: 4.5
[15]; rate 0.1250 kg/ha
  herbicidal rating, SAGPY: 9.0
GALAP (Galium aparine) [16]; Rate 0.0620 kg/ha
  Preemergence herbicidal rating GALAP: 0.0
GALAP (Galium aparine) [16]; Rate 0.1250 kg/ha
  Preemergence herbicidal rating GALAP: 9.0
GALAP (Galium aparine) [16]; Rate 0.2500 kg/ha
  Preemergence herbicidal rating GALAP: 9.0
[17]; rate 0.0320 kg/ha
  Postemergence herbicidal rating, AMBEL: 9.0
[17]; rate 0.0620 kg/ha
  Postemergence herbicidal rating, AMBEL: 9.0
[18]; rate 0.0320 kg/ha
  Postemergence herbicidal rating, CASOB: 2.0
[18]; rate 0.0620 kg/ha
  Postemergence herbicidal rating, CASOB: 4.0
[19]; rate 0.0320 kg/ha
  Postemergence herbicidal rating, CHEAL: 9.0
[19]; rate 0.0620 kg/ha
  Postemergence herbicidal rating, CHEAL: 9.0

## Cn1c(C(F)(F)F)cc(=O)n(-c2ccc3snc(C4OCCO4)c3c2)c1=O [Compound 45, 3-[3-(1,3-dioxolan-2-yl)-1,2-benzisothiazol-5-yl]-1-methyl-6-(trifluoromethyl)uracil]
[1]; rate 0.0320 kg/ha
  Postemergence herbicidal rating, IPOHE: 9.0
[1]; rate 0.0620 kg/ha
  Postemergence herbicidal rating, IPOHE: 9.0
[2]; Rate 0.0620 kg/ha
  Preemergence herbicidal rating ECHCG: 9.0
[2]; Rate 0.1250 kg/ha
  Preemergence herbicidal rating ECHCG: 9.0
[2]; Rate 0.2500 kg/ha
  Preemergence herbicidal rating ECHCG: 9.0
SETVI (Setaria viridis) [3]; Rate 0.0620 kg/ha
  Preemergence herbicidal rating SETVI: 9.0
SETVI (Setaria viridis) [3]; Rate 0.1250 kg/ha
  Preemergence herbicidal rating SETVI: 9.0
SETVI (Setaria viridis) [3]; Rate 0.2500 kg/ha
  Preemergence herbicidal rating SETVI: 9.0
[4]; rate 0.0080 kg/ha
  herbicidal rating, CYPSE: 9.0
[4]; rate 0.0320 kg/ha
  herbicidal rating, CYPSE: 9.0
[4]; rate 0.1250 kg/ha
  herbicidal rating, CYPSE: 9.0
[5]; rate 0.0320 kg/ha
  Postemergence herbicidal rating, TRZAWR: 4.4
[5]; rate 0.0620 kg/ha
  Postemergence herbicidal rating, TRZAWR: 5.0
[6]; rate 0.0080 kg/ha
  herbicidal rating, MOOVA: 4.5
[6]; rate 0.0320 kg/ha
  herbicidal rating, MOOVA: 9.0
[6]; rate 0.1250 kg/ha
  herbicidal rating, MOOVA: 9.0
[7]; rate 0.0320 kg/ha
  Postemergence herbicidal rating, ABUTH: 9.0
[7]; rate 0.0620 kg/ha
  Postemergence herbicidal rating, ABUTH: 9.0
[8]; Rate 0.0620 kg/ha
  Preemergence herbicidal rating AMBEL: 9.0
[8]; Rate 0.1250 kg/ha
  Preemergence herbicidal rating AMBEL: 9.0
[8]; Rate 0.2500 kg/ha
  Preemergence herbicidal rating AMBEL: 9.0
[9]; Rate 0.0620 kg/ha
  Preemergence herbicidal rating CASOB: 8.7
[9]; Rate 0.1250 kg/ha
  Preemergence herbicidal rating CASOB: 9.0
[9]; Rate 0.2500 kg/ha
  Preemergence herbicidal rating CASOB: 9.0
[10]; Rate 0.0620 kg/ha
  Preemergence herbicidal rating CHEAL: 9.0
[10]; Rate 0.1250 kg/ha
  Preemergence herbicidal rating CHEAL: 9.0
[10]; Rate 0.2500 kg/ha
  Preemergence herbicidal rating CHEAL: 9.0
CYPIR (Cyperus iria); rate 0.0080 kg/ha
  herbicidal rating, CYPIR: 9.0
CYPIR (Cyperus iria); rate 0.0320 kg/ha
  herbicidal rating, CYPIR: 9.0
CYPIR (Cyperus iria); rate 0.1250 kg/ha
  herbicidal rating, CYPIR: 9.0
SETVI (Setaria viridis) [11]; rate 0.0320 kg/ha
  Postemergence herbicidal rating, SETVI: 6.3
SETVI (Setaria viridis) [11]; rate 0.0620 kg/ha
  Postemergence herbicidal rating, SETVI: 9.0
GALAP (Galium aparine) [12]; rate 0.0320 kg/ha
  Postemergence herbicidal rating, GALAP: 8.5
GALAP (Galium aparine) [12]; rate 0.0620 kg/ha
  Postemergence herbicidal rating, GALAP: 9.0
ORYSAT (Rice, Tebonnet) [13]; Rate 0.0620 kg/ha
  Preemergence herbicidal rating ORYSAT: 8.7
ORYSAT (Rice, Tebonnet) [13]; Rate 0.1250 kg/ha
  Preemergence herbicidal rating ORYSAT: 9.0
ORYSAT (Rice, Tebonnet) [13]; Rate 0.2500 kg/ha
  Preemergence herbicidal rating ORYSAT: 9.0
ORYSAT (Rice, Tebonnet) [14]; rate 0.0320 kg/ha
  Postemergence herbicidal rating, ORYSAT: 4.3
ORYSAT (Rice, Tebonnet) [14]; rate 0.0620 kg/ha
  Postemergence herbicidal rating, ORYSAT: 5.2
[15]; rate 0.0080 kg/ha
  herbicidal rating, SAGPY: 7.0
[15]; rate 0.0320 kg/ha
  herbicidal rating, SAGPY: 8.0
[15]; rate 0.1250 kg/ha
  herbicidal rating, SAGPY: 9.0
GALAP (Galium aparine) [16]; Rate 0.0620 kg/ha
  Preemergence herbicidal rating GALAP: 7.0
GALAP (Galium aparine) [16]; Rate 0.1250 kg/ha
  Preemergence herbicidal rating GALAP: 9.0
GALAP (Galium aparine) [16]; Rate 0.2500 kg/ha
  Preemergence herbicidal rating GALAP: 9.0
[17]; rate 0.0320 kg/ha
  Postemergence herbicidal rating, AMBEL: 9.0
[17]; rate 0.0620 kg/ha
  Postemergence herbicidal rating, AMBEL: 9.0
[18]; rate 0.0320 kg/ha
  Postemergence herbicidal rating, CASOB: 5.0
[18]; rate 0.0620 kg/ha
  Postemergence herbicidal rating, CASOB: 9.0
[19]; rate 0.0320 kg/ha
  Postemergence herbicidal rating, CHEAL: 8.5
[19]; rate 0.0620 kg/ha
  Postemergence herbicidal rating, CHEAL: 9.0

Source: patent publication US6706663B2, “Herbicidal 3-heterocyclic substituted benzisothiazole and benzisoxazole compounds” (Wyeth, priority 2000, dated 2004)
